Measurements: ChEMBL document CHEMBL1201862, “PubChem BioAssay data set” (2004)
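Step 1: Grow cells in 96-well plates. Step 2: Expose to compound for 48 hours at 5 concentrations. Step 3: Interpolate endpoints linearly; if unreached, use highest concentration. GI50: concentration for 50% inhibition of growth.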 The source made the active and inactive calls. Cut-off read from the data, not from the text of the source: active = GI50 up to about 1.1 µM and inactive = higher.

Key:
Assay in all cases: inhibition of tumour cell growth, NCI panel, 48 h
RXF 393 = system: RXF 393
OVCAR-5 = system: OVCAR-5
KM12 = system: KM12
SK-MEL-5 = system: SK-MEL-5
SN12C = system: SN12C
NCI-H226 = system: NCI-H226
NCI-H460 = system: NCI-H460
HCC 2998 = system: HCC 2998
EKVX = system: EKVX
Malme-3M = system: Malme-3M
K562 = system: K562
HT-29 = system: HT-29
786-0 = system: 786-0
NCI-H23 = system: NCI-H23
UACC-62 = system: UACC-62
OVCAR-3 = system: OVCAR-3
CAKI-1 = system: CAKI-1

Measured: GI50

Cc1ccc(C2=C(c3ccccc3)C(=O)C(c3ccccc3)=C2c2ccc(C)cc2)cc1
inactive: RXF 393 26.4 µM | OVCAR-5 > 100 µM | KM12 36.5 µM | SK-MEL-5 55.1 µM | SN12C 66.5 µM | NCI-H226 65.5 µM | NCI-H460 36.1 µM | HCC 2998 > 100 µM | EKVX 38 µM | Malme-3M 31 µM | K562 22.1 µM | HT-29 33.5 µM | 786-0 34.8 µM | NCI-H23 31.1 µM

CCOC(=O)Cn1c(=O)n(C)c(=O)c2c1ncn2Cc1ccccc1
inactive: UACC-62 > 100 µM | OVCAR-5 > 100 µM | KM12 > 100 µM | SK-MEL-5 > 100 µM | SN12C > 100 µM | NCI-H226 > 100 µM | NCI-H460 > 100 µM | EKVX > 100 µM | Malme-3M > 100 µM | K562 > 100 µM | OVCAR-3 > 100 µM | HT-29 > 100 µM | 786-0 > 100 µM | NCI-H23 > 100 µM | CAKI-1 > 100 µM

CC(Oc1ccc(OCC2CCCCC2)cc1)C(=O)NCCO (stereo not drawn)
inactive: UACC-62 > 100 µM | RXF 393 > 100 µM | KM12 > 100 µM | SK-MEL-5 > 100 µM | SN12C > 100 µM | NCI-H226 > 100 µM | NCI-H460 52.1 µM | Malme-3M > 100 µM | K562 > 100 µM | OVCAR-3 64.9 µM | HT-29 99.3 µM | 786-0 > 100 µM | NCI-H23 15.7 µM

CCOC(=O)NC(=O)c1cn(CCN2CCN(C(=O)CCCCCCCCCCNc3ncnc4c3ncn4C3OC(CO)C(O)C3O)CC2)c(=O)[nH]c1=O (stereo not drawn)
inactive: UACC-62 > 100 µM | KM12 > 100 µM | SK-MEL-5 > 100 µM | SN12C > 100 µM | NCI-H460 > 100 µM | HCC 2998 > 100 µM | Malme-3M > 100 µM | K562 > 100 µM | HT-29 > 100 µM | 786-0 > 100 µM | NCI-H23 > 100 µM | CAKI-1 > 100 µM

CC(=O)C1=CSC2[C@H](NC(=O)Cc3ccccc3)C(=O)N2C1C(=O)OC(c1ccccc1)c1ccccc1 (stereo partly drawn)
inactive: UACC-62 30.1 µM | KM12 > 100 µM | SK-MEL-5 65.6 µM | SN12C > 100 µM | NCI-H226 > 100 µM | HCC 2998 > 100 µM | EKVX > 100 µM | Malme-3M > 100 µM | K562 > 100 µM | OVCAR-3 > 100 µM | HT-29 > 100 µM | 786-0 60.5 µM | NCI-H23 51.6 µM | CAKI-1 59 µM

CC(C)C(Sc1nc(-c2ccccc2)c(-c2ccccc2)[nH]1)C(=O)NN (stereo not drawn)
inactive: RXF 393 31.6 µM | OVCAR-5 > 100 µM | KM12 > 100 µM | SK-MEL-5 > 100 µM | SN12C > 100 µM | NCI-H226 > 100 µM | NCI-H460 97.5 µM | Malme-3M > 100 µM | OVCAR-3 98.4 µM | HT-29 > 100 µM | 786-0 > 100 µM | NCI-H23 > 100 µM | CAKI-1 > 100 µM

COc1ccc(/C=N\O[Si](C)(C)C(C)(C)C)cc1O[Si](C)(C)C(C)(C)C
inactive: UACC-62 18.8 µM | RXF 393 14.3 µM | OVCAR-5 22.4 µM | KM12 17.6 µM | SK-MEL-5 17.3 µM | SN12C 19.2 µM | NCI-H460 20.6 µM | HCC 2998 17.3 µM | EKVX 21 µM | Malme-3M 17.6 µM | K562 18.3 µM | OVCAR-3 17.1 µM | HT-29 17.7 µM | 786-0 16.7 µM | NCI-H23 19.4 µM | CAKI-1 25.1 µM

O=C1CCN(CCC(F)(F)C(F)(F)C(F)(F)C(F)(F)F)C(=S)N1
inactive: UACC-62 > 100 µM | RXF 393 > 100 µM | OVCAR-5 > 100 µM | KM12 > 100 µM | SK-MEL-5 > 100 µM | SN12C > 100 µM | NCI-H226 > 100 µM | NCI-H460 > 100 µM | EKVX > 100 µM | Malme-3M > 100 µM | K562 > 100 µM | OVCAR-3 > 100 µM | HT-29 > 100 µM | 786-0 > 100 µM | NCI-H23 > 100 µM

COC(=O)c1cc(OC(C)=O)c2c(OC)ccc(OC)c2c1
inactive: UACC-62 > 100 µM | RXF 393 > 100 µM | OVCAR-5 > 100 µM | KM12 > 100 µM | SK-MEL-5 > 100 µM | SN12C > 100 µM | NCI-H226 > 100 µM | NCI-H460 > 100 µM | EKVX > 100 µM | Malme-3M > 100 µM | K562 > 100 µM | OVCAR-3 > 100 µM | HT-29 47.9 µM | 786-0 > 100 µM | NCI-H23 > 100 µM | CAKI-1 > 100 µM

C=CCCc1cc(OC)ccc1CN(C)C(C)(C)CO
inactive: UACC-62 > 100 µM | RXF 393 > 100 µM | OVCAR-5 > 100 µM | KM12 > 100 µM | SK-MEL-5 > 100 µM | SN12C > 100 µM | NCI-H460 > 100 µM | EKVX > 100 µM | Malme-3M > 100 µM | K562 > 100 µM | OVCAR-3 > 100 µM | HT-29 > 100 µM | 786-0 > 100 µM | NCI-H23 > 100 µM | CAKI-1 > 100 µM

CC(=O)NNc1nc(C)c(C(/C=C/c2ccc(Cl)cc2)=N/NC(=S)NN)s1
inactive: UACC-62 > 100 µM | RXF 393 > 100 µM | OVCAR-5 > 100 µM | KM12 > 100 µM | SK-MEL-5 > 100 µM | SN12C > 100 µM | NCI-H226 > 100 µM | NCI-H460 > 100 µM | EKVX > 100 µM | Malme-3M > 100 µM | K562 > 100 µM | HT-29 > 100 µM | 786-0 > 100 µM | NCI-H23 > 100 µM | CAKI-1 > 100 µM

Cn1c2c(c3ccccc31)CCN(CCCN1CCN(c3cccc(Cl)c3)CC1)C2=O
inactive: UACC-62 17.4 µM | RXF 393 14.9 µM | SK-MEL-5 15.1 µM | SN12C 21.4 µM | NCI-H460 5.81 µM | EKVX 41.7 µM | K562 14.8 µM | HT-29 12.5 µM | 786-0 17.1 µM | NCI-H23 19.5 µM | CAKI-1 20.8 µM

CC1=NN(C(=O)c2ccc(Cl)cc2)C(=O)/C1=C/c1ccc(Cl)cc1
inactive: UACC-62 > 100 µM | RXF 393 > 100 µM | OVCAR-5 > 100 µM | KM12 > 100 µM | SK-MEL-5 > 100 µM | SN12C > 100 µM | NCI-H460 > 100 µM | HCC 2998 > 100 µM | EKVX > 100 µM | Malme-3M > 100 µM | K562 > 100 µM | OVCAR-3 > 100 µM | HT-29 > 100 µM | 786-0 > 100 µM | NCI-H23 > 100 µM | CAKI-1 > 100 µM

COc1cc(C(=O)O)cc2c1[nH]c1ccccc12 [MUKOEIC ACID]
inactive: UACC-62 > 25 µM | OVCAR-5 > 25 µM | KM12 > 25 µM | SK-MEL-5 > 25 µM | SN12C > 25 µM | NCI-H226 > 25 µM | NCI-H460 > 25 µM | HCC 2998 > 25 µM | Malme-3M > 25 µM | K562 > 25 µM | OVCAR-3 > 25 µM | HT-29 > 25 µM | 786-0 > 25 µM
